The assay has as its target mTOR (Homo sapiens, UniProt P42345). Kind of assay: LanthaScreen TR-FRET in vitro kinase assay, purified mTOR (PV4753), GFP-4E-BP1 substrate, […] ATP, […] MnCl2. In kind it is biochemical. (TR-FRET usually uses a lanthanide donor and a delayed reading to cut background.)

Our source for the IC50 values is article PMC6230393, “Enhancing TFEB-Mediated Cellular Degradation Pathways by the mTORC1 Inhibitor Quercetin” (Oxidative Medicine and Cellular Longevity, 2018).

Turning to `O=c1c(O)c(-c2ccc(O)c(O)c2)oc2cc(O)cc(O)c12` [quercetin, 3,3′,4′,5,7-pentahydroxyflavone], the IC50 was determined as 7.8 µM.

The term IC50 denotes the concentration that inhibits the measured activity by half. A low value points to higher potency.
